Source: patent US4454330A, “Two-functional-group-containing terpenoids, processes for the preparation of the same, and anti-ulcer agents containing the same” (Eisai Co., Ltd., priority 1980, dated 1984)

The compounds below were run on cold-restaint stress ulcer (assay: Effect on cold-restraint stress ulcer (Levine' method, rats)). Conditions: SD rats, female, about 170 g, 8-10 weeks age.
Assay type: in vivo, rats (SD family
Protocol: (1) Effect on Cold-Restaint Stress Ulcer
The inhibition effect of the test compound on the cold-restaint stress ulcer was determined according to the Levine' method using rats (SD family, female, weight about 170 g, 8-10 weeks age). The test compounds are set forth below.

SMILES	Inhibition Ratio (%) on the occurrence of the cold restrictive stress ulcer
CC(=CCO)CCC=C(C)CCC=C(C)C(=O)O [Compound A, 12-Hydroxy-2,6,10-trimethyl-2,6,10-dodecatrienoic acid]	74.6%
CC(=CCO)CCC=C(C)CCC=C(C)CCC=C(C)C(=O)O [Compound C, 16-Hydroxy-2,6,10,14-tetramethyl-2,6,10,14-hexadecatetraenoic acid]	79.2%
CC(=CCO)CCC=C(C)CCC=C(C)CCC=C(C)CCC=C(C)C(=O)O [Compound D, 20-Hydroxy-2,6,10,14,18-pentamethyl-2,6,10,14,18-eicosapentaenoic acid]	49.5%
